Measured values published in ChEMBL document CHEMBL5233217, “Modification of 7-piperazinylquinolone antibacterials to promising anticancer lead compounds: Synthesis and in vitro studies” (Eur J Med Chem, 2020).

Key:
SW-620 = assay: Antiproliferative activity against human SW620 cells assessed as inhibition of cell proliferation by CCK-8 assay; assay type: functional, cell-based
MGC-803 = assay: Antiproliferative activity against human MGC-803 cells assessed as inhibition of cell proliferation by CCK-8 assay; assay type: functional, cell-based
PC-3 [1] = assay: Antiproliferative activity against human PC-3 cells assessed as inhibition of cell proliferation by CCK-8 assay; assay type: functional, cell-based
NCI-H460 = assay: Antiproliferative activity against human NCI-H460 cells assessed as inhibition of cell proliferation by CCK-8 assay; assay type: functional, cell-based
MCF7 [2] = assay: Antiproliferative activity against human MCF7 cells assessed as inhibition of cell proliferation by CCK-8 assay; assay type: functional, cell-based
HepG2 [3] = assay: Antiproliferative activity against human HepG2 cells assessed as inhibition of cell proliferation by CCK-8 assay; assay type: functional, cell-based
SMMC-7721 [4] = assay: Antiproliferative activity against human SMMC-7721 cells assessed as reduction in cell viability; assay type: functional, cell-based
L1210 [5] = assay: Antiproliferative activity against mouse L1210 cells assessed as reduction in cell viability; assay type: functional, cell-based
HL-60 [6] = assay: Antiproliferative activity against human HL-60 cells assessed as reduction in cell viability; assay type: functional, cell-based
Hep 3B2 = assay: Antiproliferative activity against human Hep3B cells assessed as reduction in cell viability; assay type: functional, cell-based
CAPAN-1 = assay: Antiproliferative activity against human CAPAN-1 cells assessed as reduction in cell viability; assay type: functional, cell-based
[7] = Cytotoxicity against Chinese hamster CHO cells assessed as reduction in cell viability by MTT assay; assay type: toxicity, cell-based, Cricetulus griseus
HL-60 [8] = assay: Cytotoxicity against human HL-60 cells assessed as reduction in cell viability by MTT assay; assay type: functional, cell-based
SMMC-7721 [9] = assay: Antiproliferative activity against human SMMC-7721 cells assessed as reduction in cell viability incubated for 24 hrs by MTT assay; assay type: functional, cell-based; details: SMMC-7721, 24 h
SK-MEL3 = assay: Anticancer activity against human SK-MEL3 cells assessed as reduction in cell viability incubated for 72 hrs by MTT assay; assay type: functional, cell-based; details: SK-MEL3, 72 h
MCF7 [10] = assay: Anticancer activity against human MCF7 cells assessed as reduction in cell viability incubated for 72 hrs by MTT assay; assay type: functional, cell-based; details: MCF7, 72 h
A-431 = assay: Anticancer activity against human A-431 cells assessed as reduction in cell viability incubated for 72 hrs by MTT assay; assay type: functional, cell-based; details: A-431, 72 h
EJ = assay: Anticancer activity against human EJ cells assessed as reduction in cell viability incubated for 72 hrs by MTT assay; assay type: functional, cell-based
KB = assay: Anticancer activity against human KB cells assessed as reduction in cell viability incubated for 72 hrs by MTT assay; assay type: functional, cell-based
SW480 = assay: Anticancer activity against human SW480 cells assessed as reduction in cell viability incubated for 72 hrs by MTT assay; assay type: functional, cell-based; details: SW480, 72 h
CT26 = assay: Antitumor activity against mouse CT26 cells assessed as reduction in cell viability incubated for 4 hrs by MTT assay; assay type: functional, cell-based; details: CT26, 4 h
A549 [11] = assay: Antitumor activity against human A549 cells assessed as reduction in cell viability incubated for 4 hrs by MTT assay; assay type: functional, cell-based; details: A549, 4 h
L1210 [12] = assay: Antiproliferative activity against mouse L1210 cells assessed as reduction in cell viability by MTT assay; assay type: functional, cell-based
CAKI-1 = assay: Anticancer activity against human CAKI-1 cells assessed as cell growth inhibition; assay type: functional; details: pooled result: one value given for 3 cell lines, strains, targets or settings
L1210 [13] = assay: Cytotoxicity against mouse L1210 cells assessed as reduction in cell viability by MTT assay; assay type: functional, cell-based
L1210 [14] = assay: Anticancer activity against mouse L1210 cells assessed as reduction in cell viability by MTT assay; assay type: functional, cell-based
HL-60 [15] = assay: Anticancer activity against human HL-60 cells assessed as reduction in cell viability incubated for 24 hrs by MTT assay; assay type: functional, cell-based; details: HL-60, 24 h
HL-60 [16] = assay: Anticancer activity against human HL-60 cells assessed as reduction in cell viability incubated for 48 hrs by MTT assay; assay type: functional, cell-based; details: HL-60, 48 h
SiHa = assay: Antiproliferative activity against human SiHa cells assessed as cell growth inhibition incubated for 48 hrs by sulforhodamine B assay; assay type: functional
PANC-1 = assay: Antiproliferative activity against human PANC-1 cells assessed as cell growth inhibition incubated for 48 hrs by sulforhodamine B assay; assay type: functional
A549 [17] = assay: Antitumor activity against human A549 cells assessed as reduction in cell viability incubated for 72 hrs by MTT assay; assay type: functional, cell-based; details: A549, 72 h
HepG2 [18] = assay: Antitumor activity against human HepG2 cells assessed as reduction in cell viability incubated for 72 hrs by MTT assay; assay type: functional, cell-based; details: HepG2, 72 h
MCF7 [19] = assay: Antitumor activity against human MCF7 cells assessed as reduction in cell viability incubated for 72 hrs by MTT assay; assay type: functional, cell-based; details: MCF7, 72 h
PC-3 [20] = assay: Antitumor activity against human PC-3 cells assessed as reduction in cell viability incubated for 72 hrs by MTT assay; assay type: functional, cell-based; details: PC-3, 72 h
HeLa = assay: Antitumor activity against human HeLa cells assessed as reduction in cell viability incubated for 72 hrs by MTT assay; assay type: functional, cell-based
Huh-7 = assay: Anticancer activity against human Huh-7 cells assessed as reduction in cell viability incubated for 24 hrs by MTT assay; assay type: functional, cell-based; details: Huh-7, 24 h

C[C@H]1COc2c(N3CCN(C)CC3)c(F)cc3c(=O)c(-c4nnc(NC(=O)CCCCCCC(=O)NO)s4)cn1c23
IC50 (SW-620): 600 nM
IC50 (MGC-803): 600 nM
IC50 (PC-3 [1]): 600 nM
IC50 (NCI-H460): 600 nM
IC50 (MCF7 [2]): 600 nM
IC50 (HepG2 [3]): 600 nM

CCn1cc(-c2nc(SCc3nnc(-c4ccc(F)cc4)o3)n(CN(C)C)n2)c(=O)c2cc(F)c(N3CCN(C)CC3)cc21
IC50 (SMMC-7721 [4]): 1500 nM
IC50 (L1210 [5]): 1500 nM
IC50 (HL-60 [6]): 1500 nM
IC50 (Hep 3B2): 1500 nM
IC50 (CAPAN-1): 1500 nM

COc1ccccc1-c1nnc(CSc2nnc(-c3cn4c5c(c(N6CC[N+](C)(C)CC6)c(F)cc5c3=O)OC[C@@H]4C)o2)o1
IC50 [7]: 410 nM
IC50 (HL-60 [8]): 1600 nM
IC50 (SMMC-7721 [9]): 820 nM

CCn1cc(C(=O)O)c(=O)c2cc(F)c(N3CCNCC3)cc21 [NORFLOXACIN]
IC50 (SK-MEL3): > 128000 nM
IC50 (MCF7 [10]): > 128000 nM
IC50 (A-431): > 128000 nM
IC50 (EJ): > 128000 nM
IC50 (KB): > 128000 nM
IC50 (SW480): > 128000 nM
IC50 (CT26): 330000 nM
IC50 (A549 [11]): 330000 nM
IC50 (L1210 [12]): > 150000 nM

C=C1CC(CN2CCN(c3cc4c(cc3F)c(=O)c(C(=O)O)cn4CC)CC2)(c2ccc(OC)cc2)OC1=O (centres undefined)
GI50 (CAKI-1): 6460 nM

O=C(O)c1cn(C2CC2)c2cc(N3CCNCC3)c(F)cc2c1=O [CIPROFLOXACIN]
IC50 (SK-MEL3): > 128000 nM
IC50 (MCF7 [10]): > 128000 nM
IC50 (A-431): > 128000 nM
IC50 (EJ): > 128000 nM
IC50 (KB): > 128000 nM
IC50 (SW480): > 128000 nM
IC50 (CT26): 330000 nM
IC50 (A549 [11]): 330000 nM
IC50 [7]: > 150000 nM
IC50 (HL-60 [8]): > 150000 nM
IC50 (L1210 [13]): > 150000 nM
IC50 (L1210 [12]): > 150000 nM

CC1COc2c(N3CCN(C)CC3)c(F)cc3c(=O)c(-c4nnc5n4N=C(c4ccc(O)c(O)c4)CS5)cn1c23 (centres undefined)
IC50 (L1210 [14]): 1800 nM

CC1COc2c(N3CCN(C)CC3)c(F)cc3c(=O)c(-c4n[nH]c5cc(-c6ccc(O)c(O)c6)nn45)cn1c23 (centres undefined)
IC50 (L1210 [14]): 1200 nM

COc1ccc2cc3[n+](cc2c1OC(=O)c1cn(C2CC2)c2cc(N4CCNCC4)c(F)cc2c1=O)CCc1cc2c(cc1-3)OCO2
IC50 (HL-60 [15]): 19300 nM
IC50 (HL-60 [16]): 15700 nM

O=c1c(-c2n[nH]c3cc(-c4ccc(O)c(O)c4)nn23)cn(C2CC2)c2cc(N3CCNCC3)c(F)cc12
IC50 (L1210 [14]): 140 nM

COc1ccccc1-c1nnc(CSc2nnc(-c3cn4c5c(c(N6CCN(C)CC6)c(F)cc5c3=O)OC[C@@H]4C)o2)o1
IC50 [7]: 1000 nM
IC50 (HL-60 [8]): 2200 nM
IC50 (SMMC-7721 [9]): 1300 nM

C=C1CC(CN2CCN(c3cc4c(cc3F)c(=O)c(C(=O)O)cn4CC)CC2)(c2ccccc2)OC1=O (centres undefined)
GI50 (CAKI-1): 3390 nM

O=C(O)c1cn(C2CC2)c2cc(N3CCN(C(=O)CCSc4nnnn4Cc4ccccc4)CC3)c(F)cc2c1=O
GI50 (SiHa): 60 nM
GI50 (PANC-1): 60 nM

C[C@H]1COc2c(N3CCN(C)CC3)c(F)cc3c(=O)c(C(=O)NCc4cn(CCCCCCC(=O)NO)nn4)cn1c23
IC50 (A549 [17]): 300 nM
IC50 (HepG2 [18]): 300 nM
IC50 (MCF7 [19]): 300 nM
IC50 (PC-3 [20]): 300 nM
IC50 (HeLa): 300 nM

CCn1cc(-c2nn(CN(C)C)c(=S)o2)c(=O)c2cc(F)c(N3CCN(C)CC3)cc21
IC50 (Hep 3B2): 8400 nM

Nc1nnc(-c2cn(C3CC3)c3cc(N4CCNCC4)c(F)cc3c2=O)s1
IC50 (Huh-7): 25800 nM
